Data reported in paper PMC11589582, “Structural mechanisms of human sodium-coupled high-affinity choline transporter CHT1” (Cell Discovery, 2024).

Biological target: T1, sodium-coupled high-affinity choline transporter CHT1 (Homo sapiens, UniProt Q9GZV3)
T1 construct: gene SLC5A7; Full-length human CHT1 (NP_068587.1) with a C-terminal Strep-tag
T1 sequence (Q9GZV3 1-580): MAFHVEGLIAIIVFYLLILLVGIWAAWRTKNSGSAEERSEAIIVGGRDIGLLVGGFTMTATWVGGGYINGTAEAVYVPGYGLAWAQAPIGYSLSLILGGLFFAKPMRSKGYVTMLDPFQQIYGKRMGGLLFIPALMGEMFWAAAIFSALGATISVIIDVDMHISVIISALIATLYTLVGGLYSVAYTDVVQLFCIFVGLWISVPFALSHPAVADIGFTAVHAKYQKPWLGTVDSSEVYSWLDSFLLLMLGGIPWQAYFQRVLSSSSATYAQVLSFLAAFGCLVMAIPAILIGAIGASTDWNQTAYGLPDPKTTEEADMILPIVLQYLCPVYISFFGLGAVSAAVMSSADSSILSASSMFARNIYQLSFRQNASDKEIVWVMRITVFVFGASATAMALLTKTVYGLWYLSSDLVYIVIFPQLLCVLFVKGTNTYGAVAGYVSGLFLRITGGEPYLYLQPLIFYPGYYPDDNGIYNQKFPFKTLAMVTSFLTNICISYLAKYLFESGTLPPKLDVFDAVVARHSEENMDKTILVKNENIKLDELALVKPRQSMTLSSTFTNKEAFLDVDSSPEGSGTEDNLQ
Assay: cryo-EM structure at […] Å; [3H]-choline uptake inhibition in CHT1-expressing HEK293 cells
Type: cell-based

C[N+]1(C)CCOC(O)(c2ccc(-c3ccc(C4(O)C[N+](C)(C)CCO4)cc3)cc2)C1 (stereo not shown) [HC3, hemicholinium-3]
IC50: 4.98 ± 1.04 nM
